Each structure is given as a SMILES string. pIC50: −log10 of the molar value. Some results are limits rather than exact numbers.

One assay concerns the target Dephosphorylated BTK (Homo sapiens, UniProt Q06187). Nature of the assay: Test of activity inhibition against dephosphorylated BTK (mobility shift assay).
For assay [1], the system named is intracellular BTK (pY223) in Ramos cells. Nature of the assay: cells. The settings on record: Homo sapiens, read-out: BTK phosphorylation inhibitory activity.
Procedure: The supernatant was recovered by a centrifugal operation (at 15,000 rpm for 15 minutes) and the amount of protein was quantitatively determined. The supernatant was mixed with SDS-sample buffer and the mixture was reacted at 95° C. for 5 minutes thereby modifying the protein to obtain a sample solution. […] Thereafter, the protein in the gel was transferred to a PVDF membrane, using an iBlot gel transfer system (Life Technologies Corporation).
The unreacted secondary antibody was washed with TBST buffer and reacted according to the attached protocol, using ECL Prime Western Blotting Detection System (GE Healthcare Ltd.), and then each band was detected by chemiluminescence using a CCD camera (ATTO, Light-CaptureII). The detected band was digitized by densitometry (ATTO CS Analyzer ver.3.0) and an inhibition ratio was calculated from the intensity of a band in each group on the assumption that luminescence of a band of phosphorylated BTK of the compound no-addition and IgM stimulated group is 100%, whereas, luminescence of a band of phosphorylated BTK of the compound no-addition and IgM non-stimulated group is 0%. Each band of phosphorylated BTK was corrected by the total BTK.
Thereafter, IgM (Invitrogen, H15100) diluted with the medium was added so that the final concentration becomes 10 μg/mL, followed by incubation at 37° C. for 10 minutes.
The intracellular BTK autophosphorylation inhibiting activity was indicated with the mark “***” when 70% or more, with the mark “**” when 50% or more and less than 70%, and with the mark “*” when 30% or more and less than 50%.

Dephosphorylated BTK, sequence (Q06187 whole entry): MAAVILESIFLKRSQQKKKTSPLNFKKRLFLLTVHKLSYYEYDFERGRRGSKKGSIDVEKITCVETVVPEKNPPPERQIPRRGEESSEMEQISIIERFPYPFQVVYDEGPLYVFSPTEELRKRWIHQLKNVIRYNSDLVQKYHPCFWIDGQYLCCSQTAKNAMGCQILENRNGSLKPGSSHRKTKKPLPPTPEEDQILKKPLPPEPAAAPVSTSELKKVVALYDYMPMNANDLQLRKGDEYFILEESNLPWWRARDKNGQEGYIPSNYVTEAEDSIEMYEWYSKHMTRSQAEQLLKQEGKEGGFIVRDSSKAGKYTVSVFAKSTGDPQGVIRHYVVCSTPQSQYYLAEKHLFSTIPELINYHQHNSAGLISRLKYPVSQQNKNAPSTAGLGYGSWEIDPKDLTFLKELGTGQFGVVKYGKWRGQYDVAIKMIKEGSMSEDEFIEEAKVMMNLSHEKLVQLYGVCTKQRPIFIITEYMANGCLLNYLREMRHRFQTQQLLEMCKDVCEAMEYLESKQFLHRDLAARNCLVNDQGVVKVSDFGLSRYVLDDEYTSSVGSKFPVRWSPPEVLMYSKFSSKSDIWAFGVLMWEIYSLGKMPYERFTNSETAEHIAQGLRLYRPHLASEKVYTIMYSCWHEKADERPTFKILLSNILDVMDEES

Turning to `Cc1c(NC(=O)c2ccc(C(C)(C)C)cc2)cccc1-c1nc(N)nc(Nc2ccc(C(=O)N3CCOC(CO)C3)cc2)n1` (stereo not drawn) [Example 30, N-{3-[4-Amino-6-({4-[2-(hydroxymethyl)morpho-line-4-carbonyl]phe-nyl}amino)-1,3,5-tria-zin-2-yl]-2-methylphe-nyl}-4-(tert-butyl)benz-amide], the negative logarithm of the IC50 (pIC50) on Dephosphorylated BTK is 8.89. In assay [1], the inhibition at 0.3 µM was over 70%.
For `Cc1c(NC(=O)c2ccc(C(C)(C)C)cc2)cccc1-c1nc(N)nc(Nc2ccc(C(=O)N3CCOCC3CO)cc2)n1` (stereo not drawn) [Example 31, N-{3-[4-Amino-6-({4-[3-(hydroxymethyl)morpho-line-4-carbonyl]phe-nyl}amino)-1,3,5-tria-zin-2-yl]-2-methylphe-nyl}-4-(tert-butyl) benzamide], in that order: 8.82 and over 70%.
For `Cc1c(NC(=O)c2ccc(C(C)(C)C)cc2)cccc1-c1nc(N)nc(Nc2ccc(C(=O)N3CCOC(CN)C3)cc2)n1` (stereo not drawn) [Example 32, N-{3-[4-Amino-6-({4-[2-(aminomethyl)morpho-line-4-carbonyl]phenyl}amino)-1,3,5-triazin-2-yl]-2-methylphenyl}-4-(tert-butyl)benz-amide], in that order: 9.10 and over 70%.
With `Cc1c(-c2nc(N)nc(Nc3ccc(C(=O)N4CCOCC4)cc3)n2)cccc1N1Cc2cc(C(C)(C)C)ccc2C1=O` [Example 33, 2-[3-(4-Amino-6-{[4-(morpholine-4-carbonyl)phenyl]amino}-1,3,5-triazin-2-yl)-2-methylphenyl]-5-(tert-butyl)isoindolin-1-one], the inhibition at 0.3 µM in assay [1] is over 70%.
As to `CN(C)CCCOc1ccc(Nc2nc(N)nc(-c3cccc(NC(=O)c4ccc(C(C)(C)C)cc4)c3CO)n2)cc1` [Example 70, N-{3-[4-Amino-6-({4-[3-(dimethylamino)prop-oxy]phenyl}amino)-1,3,5-triazin-2-yl]-2-(hydroxy-methyl)phenyl}-4-(tert-butyl)benzamide], the pIC50 on Dephosphorylated BTK was 9.00. The inhibition at 0.3 µM in assay [1] is over 70%.
`Cn1cc(Nc2nc(N)nc(-c3cccc(N4CCc5cc(C6CC6)cc(F)c5C4=O)c3CO)n2)cn1` [Example 180, 2-(3-{4-Amino-6-[(1-methyl-1H-pyrazol-4-yl)amino]-1,3,5-triazin-2-yl}-2-(hydroxymeth-yl)phenyl)-6-cyclopro-pyl-8-fluoro-3,4-dihy-droisoquinolin-1(2H)-one]: the pIC50 on Dephosphorylated BTK was 9.15. In assay [1], the inhibition at 0.3 µM was over 70%.
For `Cn1ccc(Nc2nc(N)nc(-c3cccc(N4CCc5cc(C6CC6)cc(F)c5C4=O)c3CO)n2)c1` [Example 213, 2-(3-{4-Amino-6-[(1-meth-yl-1H-pyrrol-3-yl)amino]-1,3,5-triazin-2-yl}-2-(hydroxymethyl)phenyl)-6-cyclopropyl-8-fluoro-3,4-dihydro-isoquinolin-1(2H)-one] the same measures were 8.96 and over 70%.
For `Nc1nc(Nc2cnn(CC3CC3)c2)nc(-c2cccc(N3CCc4cc(C5CC5)cc(F)c4C3=O)c2CO)n1` [Example 214, 2-[3-(4-Amino-6-{[1-(cyclo-propylmethyl)-1H-pyrazol-4-yl]amino}-1,3,5-triazin-2-yl)-2-(hydroxymethyl)phenyl]-6-cyclopropyl-8-fluoro-3,4-dihydroisoquinolin-1(2H)-one] the same measures were 9.52 and over 70%.
Consider `Cn1cc(Nc2nc(N)nc(-c3cccc(N4CCc5cc(C6CC6)cc(F)c5C4=O)c3CO)n2)cc1C#N` [Example 269, 4-({4-Amino-6-[3-(6-cyclo-propyl-8-fluoro-1-oxo-3,4-dihydroisoquino-lin-2(1H)-yl)-2-(hy-droxymethyl)phenyl]-1,3,5-triazin-2-yl}ami-no)-1-methyl-1H-pyrrole-2-carbonitrile], for which, at Dephosphorylated BTK, the negative logarithm of the IC50 (pIC50) was 9.10.
On the same count and under the same terms, the figure for `CC(C1CC1)n1cc(Nc2nc(N)nc(-c3cccc(N4CCc5cc(C6CC6)cc(F)c5C4=O)c3CO)n2)cn1` (stereo not drawn) [Example 270, 2-[3-(4-Amino-6-{[1-(1-cyclopropylethyl)-1H-pyrazol-4-yl]amino}-1,3,5-triazin-2-yl)-2-(hydroxymethyl)phe-nyl]-6-cyclopropyl-8-fluoro-3,4-dihydroiso-quinolin-1(2H)-one] is 9.15.
Still for that read-out and setting: the figure for `CCC(C)n1cc(Nc2nc(N)nc(-c3cccc(N4CCc5cc(C6CC6)cc(F)c5C4=O)c3CO)n2)cn1` (stereo not drawn) [Example 271, 2-[3-(4-Amino-6-{[1-(sec-butyl)-1H-pyrazol-4-yl]amino}-1,3,5-tri-azin-2-yl)-2-(hydroxy-methyl)phenyl]-6-cyclo-propyl-8-fluoro-3,4-dihydroisoquinolin-1 (2H)-one] is 9.40.
With `CN(C)C(=O)c1cc(Nc2nc(N)nc(-c3cccc(N4CCc5cc(C6CC6)cc(F)c5C4=O)c3CO)n2)cn1C` [Example 272, 4-({4-Amino-6-[3-(6-cyclo-propyl-8-fluoro-1-oxo-3,4-dihydroisoquino-lin-2(1H)-yl)-2-(hydroxy-methyl)phenyl]-1,3,5-triazin-2-yl}ami-no)-N,N,1-trimethyl-1H-pyrrole-2-carboxamide], the pIC50 at Dephosphorylated BTK is 8.96.
As for `CC1(Cn2cc(Nc3nc(N)nc(-c4cccc(N5CCc6cc(C7CC7)cc(F)c6C5=O)c4CO)n3)cn2)CC1` [Example 273, 2-{3-[4-Amino-6-({1-[(1-methylcyclopropyl)methyl]-1H-pyrazol-4-yl}amino)-1,3,5-triazin-2-yl]-2-(hydroxymeth-yl)phenyl}-6-cyclo-propyl-8-fluoro-3,4-di-hydroisoquinolin-1(2H)-one], the pIC50 on Dephosphorylated BTK was 8.62.
`C=CCn1cc(Nc2nc(N)nc(-c3cccc(N4CCc5cc(C6CC6)cc(F)c5C4=O)c3CO)n2)cn1` [Example 274, 2-(3-{4-[(1-Allyl-1H-pyrazol-4-yl)amino]-6-amino-1,3,5-triazin-2-yl}-2-(hydroxymethyl)phenyl)-6-cyclopropyl-8-fluoro-3,4-dihydro-isoquinolin-1(2H)-one]: the pIC50 at Dephosphorylated BTK is 9.00.
As to `Nc1nc(Nc2cnn(CC(F)F)c2)nc(-c2cccc(N3CCc4cc(C5CC5)cc(F)c4C3=O)c2CO)n1` [Example 275, 2-[3-(4-Amino-6-{[1-(2,2-difluoroethyl)-1H-pyrazol-4-yl]amino}-1,3,5-triazin-2-yl)-2-(hydroxymethyl)phenyl]-6-cyclopropyl-8-fluoro-3,4-dihydroisoquinolin-1(2H)-one], on Dephosphorylated BTK, the pIC50 is 8.77.
For the compound `Nc1nc(Nc2ccn(C3CC3)c2)nc(-c2cccc(N3CCc4cc(C5CC5)cc(F)c4C3=O)c2CO)n1` [Example 277, 2-(3-{4-Amino-6-[(1-cyclo-propyl-1H-pyrrol-3-yl)amino]-1,3,5-tri-azin-2-yl}-2-(hydroxy-methyl)phenyl)-6-cyclo-propyl-8-fluoro-3,4-dihydroisoquinolin-1(2H)-one], the negative logarithm of the IC50 (pIC50) at Dephosphorylated BTK is 8.48.
Turning to `CC(C)(O)Cn1cc(Nc2nc(N)nc(-c3cccc(N4CCc5cc(C6CC6)cc(F)c5C4=O)c3CO)n2)cn1` [Example 278, 2-[3-(4-Amino-6-{[1-(2-hydroxy-2-methylpro-pyl)-1H-pyrazol-4-yl]amino}-1,3,5-triazin-2-yl)-2-(hydroxymethyl)phenyl]-6-cyclopropyl-8-fluoro-3,4-dihydro-isoquinolin-1(2H)-one], on Dephosphorylated BTK, the pIC50 was 8.66.

In general, pIC50 refers to the IC50 on a negative log10 scale, so that one unit is a factor of ten.

These data come from patent US20150011751A1, “NOVEL TRIAZINE DERIVATIVE” (CARNA BIOSCIENCES, INC., priority 2012, published 2015).
